These are literature values, as cited in US20230390221A1, “PHARMACEUTICAL COMPOSITIONS WITH LOW AMOUNTS OF NITROSAMINE IMPURITIES AND METHODS FOR PRODUCING THE SAME” (Zentiva K.S., priority 2020, published 2023).

The conditions of the series: limit set by EMA or FDA.

In the case of `CCN(CC)N=O` [NDEA, N-nitrosodiethylamine], the acceptable daily limits is given as 26.5 ng/day. In the case of `CN(C)N=O` [NDMA, N-nitrosodimethylamine], the acceptable daily limits is recorded as 96 ng/day.
